Test results from ChEMBL document CHEMBL1133000, “Inhibition of protein kinase C(alpha) by dequalinium analogues: dependence on linker length and geometry” (J Med Chem, 2000).
pIC50: −log10 of the molar value.

Target: Protein kinase C alpha type (Homo sapiens, UniProt P17252)
Test: Inhibition of human recombinant PKCalpha

Row | pIC50 | Structure (SMILES)
1 | 3.86 | CCCC/C=C/CCCC[n+]1c(C)cc(N)c2ccccc21
2 | 4.28 | Cc1cc(N)c2ccccc2[n+]1CCCC/C=C\CCCC[n+]1c(C)cc(N)c2ccccc21
3 | 4.92 | Cc1cc(N)c2ccccc2[n+]1CCCC/C=C/CCCC[n+]1c(C)cc(N)c2ccccc21
